In ChEMBL document CHEMBL3826873, “Efficient transmembrane anion transport mediated by a bis(imidazolyl)-functionalized bis(choloyl) conjugate” (Bioorg Med Chem Lett, 2016):
The source made the active and inactive calls. No cut-off for these calls is given here.

Assays:
[1] = Anionophoric activity across egg yolk phosphatidylcholine-based liposomal membrane vesicles (unknown origin) assessed as efflux of chloride anions at 5 mol% after 300 seconds in presence of sodium sulfate by electrode technique; type: ADME; conditions: artificial membrane, 5 min
[2] = Anionophoric activity across egg yolk phosphatidylcholine-based liposomal membrane vesicles (unknown origin) assessed as efflux of chloride anions at 3 mol% after 300 seconds in presence of Rb+ by electrode technique; type: ADME; conditions: artificial membrane, 5 min
[3] = Anionophoric activity across egg yolk phosphatidylcholine-based liposomal membrane vesicles (unknown origin) assessed as efflux of chloride anions after 300 seconds in presence of sodium nitrate in external solution by electrode technique; type: ADME; conditions: artificial membrane, 5 min
[4] = Anionophoric activity across egg yolk phosphatidylcholine-based liposomal membrane vesicles (unknown origin) assessed as efflux of chloride anions at 3 mol% after 300 seconds in presence of Na+ by electrode technique; type: ADME; conditions: artificial membrane, 5 min
[5] = Anionophoric activity across egg yolk phosphatidylcholine-based liposomal membrane vesicles (unknown origin) assessed as induction of pH discharge at 3 mol% after 20 mins in presence of Br- by fluorescence based pyranine entrap assay; conditions: artificial membrane
[6] = Anionophoric activity across egg yolk phosphatidylcholine-based liposomal membrane vesicles (unknown origin) assessed as induction of pH discharge at 3 mol% after 20 mins in presence of I- by fluorescence based pyranine entrap assay; conditions: artificial membrane
[7] = Anionophoric activity across 70% POPC/30% cholesterol-based liposomal membrane vesicles (unknown origin) assessed as induction of pH discharge at 3 mol% after 20 mins by fluorescence based pyranine entrap assay
[8] = Anionophoric activity across egg yolk phosphatidylcholine-based liposomal membrane vesicles (unknown origin) assessed as induction of pH discharge at 3 mol% after 20 mins in presence of Cl- by fluorescence based pyranine entrap assay; conditions: artificial membrane
[9] = Anionophoric activity across egg yolk phosphatidylcholine-based liposomal membrane vesicles (unknown origin) assessed as efflux of chloride anions at 3 mol% after 300 seconds in presence of Li+ by electrode technique; type: ADME; conditions: artificial membrane, 5 min
[10] = Anionophoric activity across egg yolk phosphatidylcholine-based liposomal membrane vesicles (unknown origin) assessed as relative chloride efflux measured as ratio of intrinsic rate constant and dissociation constant of self-association process after 300 seconds in presence of sodium nitrate in external solution by electrode technique; type: ADME; conditions: artificial membrane, 5 min
[11] = Anionophoric activity across egg yolk phosphatidylcholine-based liposomal membrane vesicles (unknown origin) assessed as efflux of chloride anions at 3 mol% after 300 seconds in presence of K+ by electrode technique; type: ADME; conditions: artificial membrane, 5 min
[12] = Anionophoric activity across egg yolk phosphatidylcholine-based liposomal membrane vesicles (unknown origin) assessed as efflux of chloride anions at 3 mol% after 300 seconds in presence of Cs+ by electrode technique; type: ADME; conditions: artificial membrane, 5 min
[13] = Anionophoric activity across egg yolk phosphatidylcholine-based liposomal membrane vesicles (unknown origin) assessed as induction of pH discharge at 3 mol% after 20 mins in presence of NO3- by fluorescence based pyranine entrap assay; conditions: artificial membrane

| Activity [1] | Activity [2] | Activity [3] | Activity [4] | Activity [5] | Activity [6] | Activity [8] | Activity [9] | Ratio [10] [×10⁻² /s] | Activity [11] | Activity [12] | Activity [13] | SMILES | Activity [7] |
| --- | --- | --- | --- | --- | --- | --- | --- | --- | --- | --- | --- | --- | --- |
| Active | Active | Dose-dependent effect | Active | Active | Active | Active | Active | 1.45 | Active | Active | Active | C[C@H](CCC(=O)NC(Cc1cnc[nH]1)C(=O)NCc1ccc(CNC(=O)C(Cc2cnc[nH]2)NC(=O)CC[C@@H](C)[C@@H]2CC[C@@H]3[C@@H]4[C@@H](C[C@@H](O)[C@]32C)[C@]2(C)CC[C@H](O)C[C@@H]2C[C@@H]4O)cc1)[C@H]1CC[C@H]2[C@@H]3[C@H](O)C[C@@H]4C[C@H](O)CC[C@]4(C)[C@H]3C[C@H](O)[C@]12C (some centres undefined) | Active |
|  |  | Not Active |  |  |  |  |  |  |  |  |  | C[C@H](CCC(=O)NCc1ccc(CNC(=O)CC[C@@H](C)[C@H]2CC[C@H]3[C@@H]4[C@H](O)C[C@@H]5C[C@H](O)CC[C@]5(C)[C@H]4C[C@H](O)[C@]23C)cc1)[C@H]1CC[C@H]2[C@@H]3[C@H](O)C[C@@H]4C[C@H](O)CC[C@]4(C)[C@H]3C[C@H](O)[C@]12C |  |
